According to article PMC9609496, “Synthesis, In Vitro Anti-Microbial Analysis and Molecular Docking Study of Aliphatic Hydrazide-Based Benzene Sulphonamide Derivatives as Potent Inhibitors of α-Glucosidase and Urease” (Molecules, 2022):
Where two headings read alike, the source gives them in different places.

Tests used:
urease = urease (Canavalia ensiformis, UniProt P07374); experiment: biochemical; format: biochemical
Procedure: Figure S6. High resolution Proton NMR Spectrum of 3-chloro-N'- undecanoylbenzenesulfonohydrazide (4.13).
4.16. Urease Assay Protocol
The reaction mixtures, which included […] of enzyme solution and […] of buffers containing 100 mM urea, were incubated in 96-well plates at 30 °C for 15 min with […] of the test compounds (0.5 mM concentration). The urea concentrations were adjusted from 2 -24 mM for the kinetics evaluation. By quantifying ammonia production with Weatherburn's indophenol technique, urease activity was determined.. To each well, 45 μL of the phenol reagent (1% w/v phenol and 0.005% w/v sodium nitroprusside) and 70 μL of the alkali reagent (0.5% w/v NaOH and 0.1% active chloride NaOCl) were added. Using a microplate reader, the rising absorbance at 630 nm was observed after 50 minutes (Molecular Device, USA). In a final volume of […], each reaction was carried out three times. Using the software SoftMaxPro, the results (change in absorbance per minute) were processed (molecular Device, USA). The experiments were run at pH 6.8 throughout. The formula 100-(ODtest well/ODcontrol) 100 was […]
used to calculate the percentage of inhibition. Thiourea was used as the standard inhibitor for […]
4.17. α-Glucosidase Inhibitory Assay Protocol […]
phosphate buffer (pH=6.8), were incubated at 37°C for 15 min in a 96-well plate. 20 µl of p-nitrophenyl—D-glucopyranoside solution was further added as a substrate and again incubated for 20 min at 37 °C. Sodium carbonate (50 µl of 0.1M) was added to terminate the reaction. P-nitrophenol was liberated, during the reaction which was measured at 405n m u sing an ELISA […]
conditions by omitting test samples. All the experiments were carried out in triplicates. The percentage inhibition was calculated by the formula.
% Inhibition = [(Ac – As) /Ac] × 100 Ac-absorbance for control, As-absorbance for standard.
4.18. Molecular Docking Assay
In this study the synthesized compounds were analyzed against α-amylase and α-glucosidase enzyme. […]

Alternaria alternate = experiment: Anti-fungal activity; format: cell-based; conditions: against Alternaria alternate, standard drug Terinafine
[1] = read-out: Anti-Urease IC50 (µM ± SEM)

Sequence of urease (P07374 whole entry, looked up): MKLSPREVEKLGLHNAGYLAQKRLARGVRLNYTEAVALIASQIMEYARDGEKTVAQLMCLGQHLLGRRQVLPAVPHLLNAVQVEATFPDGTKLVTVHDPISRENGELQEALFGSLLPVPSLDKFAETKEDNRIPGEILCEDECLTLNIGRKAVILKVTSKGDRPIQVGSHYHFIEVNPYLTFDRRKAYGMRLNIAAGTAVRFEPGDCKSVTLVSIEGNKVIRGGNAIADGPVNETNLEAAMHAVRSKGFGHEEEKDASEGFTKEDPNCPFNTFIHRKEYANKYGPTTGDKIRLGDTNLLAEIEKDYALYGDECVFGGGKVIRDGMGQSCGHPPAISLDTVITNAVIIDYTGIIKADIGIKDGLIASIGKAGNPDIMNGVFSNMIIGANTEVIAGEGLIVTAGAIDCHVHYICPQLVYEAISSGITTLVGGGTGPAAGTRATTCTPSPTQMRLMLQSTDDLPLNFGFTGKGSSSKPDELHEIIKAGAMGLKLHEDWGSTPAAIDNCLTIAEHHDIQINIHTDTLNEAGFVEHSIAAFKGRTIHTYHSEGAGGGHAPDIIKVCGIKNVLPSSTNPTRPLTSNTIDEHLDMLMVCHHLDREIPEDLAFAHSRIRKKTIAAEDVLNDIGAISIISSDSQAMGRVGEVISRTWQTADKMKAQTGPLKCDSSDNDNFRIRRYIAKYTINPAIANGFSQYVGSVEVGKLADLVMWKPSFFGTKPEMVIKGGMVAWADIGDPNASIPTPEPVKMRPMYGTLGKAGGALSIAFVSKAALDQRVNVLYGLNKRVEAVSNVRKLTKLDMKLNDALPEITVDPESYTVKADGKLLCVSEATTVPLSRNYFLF

Compound	IC50 (urease; [1]) [µM]	melting point [°C]	IC50 (urease) [µM]	anti-fungal activity (Alternaria alternate)
CCCCCCCCCCC(=O)NNS(=O)(=O)c1cccc(Cl)c1 [Analog 13, 3-chloro-N'-undecanoylbenzenesulfonohydrazide]	18.4 ± 0.3	168 to 169	–	–
CCCCC(=O)NNS(=O)(=O)c1ccc(F)cc1[N+](=O)[O-] [Analog 5]	–	–	2.1 ± 0.1	exhibited anti-fungal profiles
NC(N)=S [thiourea, reference compound]	7.8	–	–	–
